Measured values taken from patent US9802962B2, “Tricyclic pyrone compounds reduce amyloid beta aggregates” (priority 2013, dated 2017).

What was measured:
APP/PS1 mice = assay: SmartCage homecage activity and locomotion in APP/PS1 mice; assay type: in vivo; settings: Day 7, TP70 in drinking water, treatment versus control group
Experimental: FIGS. 8A-8D. Effects of TP70 on homecage activity and locomotion in homecage monitored using the SmartCage™ system A. Active time in each time block during 24 hours. B. Travel distance in each time block during 24 hours. C. Travel speed in each time block during 24 hours. D. Rearing activity in each time block during 24 hours. The gray shadow indicates dark phase of a 12:12 light/dark cycle.
The validated SmartCage™ system that enables automated, objective, quantitative and long-term evaluation of neuropsychological endpoints at the animal's home cages (Flores, et al., IEEE Trans Biomed Eng, 2007, 54:225-233; Xiong, et al., Stroke, 2011, 42:2026-2032; Carter, et al., Nat Neurosci, 2010, 13:1526-1533; Khroyan, et al., Clin Exp Pharmacol Physiol, 2012, 39:614-622) was used to complement other special individual learning and memory tests (Shineman, et al., Alzheimers Res Ther, 2011, 3:28; Hamann, et al., Neuropsychologia, 2002, 40:1187-1195; Aultman, et al., Psychopharmacology (Berl), 2001, 153:353-364; Ashe, K H, J Alzheimers Dis, 2006, 9:123-126). […] Homecage activity and locomotion were assessed on Day 7 after the treatment and the blood samples were collected from each mouse after the assessment of general behavior. […]

[1] = Plasma and brain concentrations after i.v. administration in mice; assay type: in vivo
Experimental: FIGS. 3A-3B. FIG. 3A. CP2 and TP70 plasma and brain concentrations following i.v. injection in mice (n=3). FIG. 3B. […] The drug concentration was determined using HPLC and mass spectrometry.
HPLC/mass spectrometry were employed to quantify CP2 and TP70 in the plasma and brain after i.v. administration in mice. The CP2 concentration was 200-300 μM in the mouse brain between 0.5 and 2 h following 25 mg/kg i.v. administration (FIG. 3A). Similarly, TP70 concentration reached 190 μM in plasma at 5 min and 160 μM in brain at 2 h following 25 mg/Kg i.v. administration (FIGS. 3A and 3B).

5×FAD mice = assay: In vivo efficacy in 5×FAD mice
Experimental: FIGS. 6A-6E. 2-month-old 5×FAD mice were treated with TP70 or vehicle for 6 weeks as described in the text. Four cortical sections evenly distributed through the cerebrum were taken from one hemisphere of each mouse (6 mice in each treatment group) and fluorescently stained with the amyloid dye FSB (blue) and the nuclear dye propidium iodide (PI, red). A: Representative sections that show the PI stain. B: Representative sections that only show the FSB stain. C: Fluorescent staining was objectively quantified by LSC. […] E: A representative Western blot containing the soluble fractions of three mice of each group was analyzed for soluble Aβ dimer (see ref 59 for the method).
Although the mechanism of neuron loss in Alzheimer's disease (AD) remains elusive, it is associated with cerebral accumulation of Aβ42. The 5×FAD mouse model of amyloid deposition expresses five familial AD (FAD) mutations that are additive in driving Aβ42 overproduction.

[2] = Cerep in vitro profiling (protein binding, absorption, metabolic stability, off target activity); assay type: in vitro ADME; settings: Caco-2, P-gp, human liver microsomes, CYPs, HepG2 viability, hERG
wildtype mice (C57BL/6) = assay: Rotarod performance in wildtype mice; assay type: in vivo; settings: 50 mg/kg ip, one hour after dosing, Day 5
Experimental: FIG. 9. Effects of TP70 on mouse rotarod performance. The mice were trained three times every day for 4 days to reach its maximal performance using SmartCage Rotarod device (with a setting of a constant speed at 15 […] per minute).
To further assess side effects on motor activity, and particularly balance and muscle coordination, rotarod performance was conducted by the wildtype mice (C57BL/6 female, 2 months old, n=7). Vehicle injection (i.p) was given after the Day 4 training to assess any effects of vehicle or injection per se. On Day 5, one hour after TP70 (50 mg/kg, ip) the mice were subject to the rotarod test.

[3] = Plasma and organ distribution after ip administration in mice; assay type: in vivo; settings: 25 mg/kg ip
Experimental: FIG. 4. Concentrations or content of TP70 in the plasma and 7 key organs following ip administration of TP70 (25 mg/kg) in mice (n=3 each data point).
In addition to determination of drug concentrations in plasma and the brain, drug content in other six key organs, the heart, liver, lungs, intestine, and kidneys of mice (male C57BL/6, 3 months, Harlan, n=3 per timepoint) were also assessed in a separate pharmacokinetic (PK) study of TP70 (25 mg/kg, ip,) using HPLC and mass spectrometry.

Question: What does the source list for `Cc1cc2c(c(=O)o1)C=C1CCC(C(C)CNCc3ccc(O)cc3)CC1O2` (centres unmarked) [TP70]?
Answer: homecage activity and locomotion (APP/PS1 mice): no significant differences; brain concentration ([1]; brain at 2 h, 25 mg/Kg i.v.): 160 µM; CNS penetration ([1]; i.v., mice): good CNS penetration; plasma concentration ([1]; plasma at 5 min, 25 mg/Kg i.v.): 190 µM; elimination t½ ([1]; plasma, i.v., 3-compartment model fit): 2.5 h; plaque count (FSB stain), cortical sections (5×FAD mice; 2-month-old 5×FAD mice, 6 weeks oral treatment, versus vehicle, LSC): substantial reduction of plaque count; nuclear count (PI stain), cortical sections (5×FAD mice; 2-month-old 5×FAD mice, 6 weeks treatment, versus vehicle, LSC): no difference in nuclear count; cerebral amyloid load (5×FAD mice; 5×FAD mice): substantially reduce; drug toxicity during the course of treatment (5×FAD mice; 5×FAD mice): no apparent drug toxicity; histopathology, hematological counts, and blood chemistry at necropsy (5×FAD mice; 5×FAD mice): No abnormalities; levels of toxic Aβ dimers (5×FAD mice; 5×FAD mice): substantially reduce; druggable profile versus currently used drugs or reference compounds [2]: druggable profiles better or similar to several currently used drugs or reference compounds; rotarod performance (wildtype mice (C57BL/6)): insignificant effects; distribution in the heart [3]: lowest distribution in the heart; distribution in the brain ([3]; mice): higher distribution in the brain than in the plasma and all other organs examined, except for kidneys; disposition in the kidneys ([3]; two hours post dosing): highest disposition in the kidneys; distribution in intestines ([3]; two hours post dosing): low distribution in intestines
